The assay has as its target T1, Kv3.1 potassium channel (Kv3.1b) (Rattus norvegicus, UniProt P25122).
T1 sequence (P25122 1-585): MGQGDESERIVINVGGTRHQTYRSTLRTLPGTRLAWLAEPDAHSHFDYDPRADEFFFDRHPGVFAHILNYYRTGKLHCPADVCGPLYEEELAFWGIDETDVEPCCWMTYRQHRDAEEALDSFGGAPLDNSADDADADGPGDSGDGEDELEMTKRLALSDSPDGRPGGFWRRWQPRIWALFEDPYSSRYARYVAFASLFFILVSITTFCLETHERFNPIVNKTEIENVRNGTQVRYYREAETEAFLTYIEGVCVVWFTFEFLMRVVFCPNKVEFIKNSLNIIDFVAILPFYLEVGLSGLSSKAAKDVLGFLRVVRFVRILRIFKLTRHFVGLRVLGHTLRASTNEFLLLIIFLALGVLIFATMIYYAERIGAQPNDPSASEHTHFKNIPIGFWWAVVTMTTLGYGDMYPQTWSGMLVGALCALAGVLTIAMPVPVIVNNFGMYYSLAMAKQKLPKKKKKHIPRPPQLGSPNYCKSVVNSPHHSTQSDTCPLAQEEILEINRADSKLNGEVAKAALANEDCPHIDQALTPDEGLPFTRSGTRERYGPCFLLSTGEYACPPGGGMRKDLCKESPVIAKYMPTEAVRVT
Kind of assay: whole-cell patch clamp of transfected CHO cells. The assay is classed as cell-based.

Molecules are shown by their SMILES.

With `Fc1ccc([C@@H]2CCNC[C@H]2COc2ccc3c(c2)OCO3)cc1` [paroxetine], the IC50 is 9.43 µM.

(Values after publication PMC5746514 (The Korean Journal of Physiology & Pharmacology : …, 2017).)
